The text below walks through data of US11306102B2, “1,3-di-substituted ketene compound and application thereof” (BEBETTER MED INC., priority 2017, dated 2022).

The structures appear in SMILES notation.

For orientation: EC50 means the midpoint of the concentration-response curve. As usually defined, the AUC(0-inf) is the area under the concentration-time curve extrapolated to infinity. Lower therefore signals low exposure. By AUC(0-t) is commonly meant the area under the concentration-time curve up to a stated or last time point. A higher AUC(0-t) goes with high exposure. In general, Cmax refers to the peak of the concentration-time curve. What is called Tmax is the time at which the peak concentration occurs.

One series concerns the target T1, PPARα (Homo sapiens, UniProt Q07869).
T1 construct: expressed in transfected cells; host or cells: Hela cells
T1 sequence (Q07869 1-468): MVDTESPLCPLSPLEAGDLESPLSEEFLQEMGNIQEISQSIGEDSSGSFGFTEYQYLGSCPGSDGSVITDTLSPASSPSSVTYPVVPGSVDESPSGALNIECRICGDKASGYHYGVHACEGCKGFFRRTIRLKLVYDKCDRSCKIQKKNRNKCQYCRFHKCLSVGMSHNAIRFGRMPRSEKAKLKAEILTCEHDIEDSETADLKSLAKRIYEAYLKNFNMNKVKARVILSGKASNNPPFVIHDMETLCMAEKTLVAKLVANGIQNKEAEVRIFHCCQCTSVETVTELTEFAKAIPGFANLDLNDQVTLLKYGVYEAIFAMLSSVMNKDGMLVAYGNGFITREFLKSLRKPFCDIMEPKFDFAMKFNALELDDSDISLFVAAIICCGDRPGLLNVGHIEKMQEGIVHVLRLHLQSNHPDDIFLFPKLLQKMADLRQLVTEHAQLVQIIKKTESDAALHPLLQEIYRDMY
The series can be described thus: Hela cell/luciferase reporter gene method, PPARα agonist activity. In kind it is cell-based. The following applies: for EC50: Hela cells, pPPRE3-TK-Luciferase reporter, 24 hrs incubation, read-out: agonistic activity on PPAα (EC50); for ratio of PPARγ/PPARα activated (EC50 ratio): under the experimental conditions of the present disclosure. In outline:
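HeLa cells co-transfected with pPPRE3-TK-firefly luciferase and PPARα, δ or γ expression vector (reporter:receptor 6:1, 8:1, 2:1 respectively). Cells exposed 24 h at 37 °C in 1% FBS medium to 8-point 4-fold dilution series; luciferase luminescence read, EC50 derived.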
On the technique in general: Reporter assays use an easily measured gene product as a stand-in for the process of interest.

The next series deals with T2, PPARγ (Homo sapiens, UniProt P37231).
T2 construct: expressed in transfected cells; host or cells: Hela cells
T2 sequence (P37231 1-505): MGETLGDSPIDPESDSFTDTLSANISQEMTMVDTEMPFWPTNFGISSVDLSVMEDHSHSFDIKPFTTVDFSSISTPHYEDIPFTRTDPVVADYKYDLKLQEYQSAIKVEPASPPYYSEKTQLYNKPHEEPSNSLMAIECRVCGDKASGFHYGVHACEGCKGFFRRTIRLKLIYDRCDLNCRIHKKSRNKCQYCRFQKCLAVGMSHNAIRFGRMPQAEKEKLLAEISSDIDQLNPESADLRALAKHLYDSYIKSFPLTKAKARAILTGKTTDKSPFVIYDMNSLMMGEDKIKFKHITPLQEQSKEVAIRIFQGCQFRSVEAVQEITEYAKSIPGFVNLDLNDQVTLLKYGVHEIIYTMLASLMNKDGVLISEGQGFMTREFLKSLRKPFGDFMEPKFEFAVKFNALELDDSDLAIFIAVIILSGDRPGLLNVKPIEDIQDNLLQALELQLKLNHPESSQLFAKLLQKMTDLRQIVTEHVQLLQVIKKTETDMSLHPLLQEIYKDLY
The series is described as follows: Hela cell/luciferase reporter gene method, PPARγ agonist activity. The following applies: for EC50: Hela cells, pPPRE3-TK-Luciferase reporter, 24 hrs incubation, read-out: agonistic activity on PPARγ (EC50). The format is cell-based. How it is done:
This example measures the biological activity of a PPAR agonist using the Hela cell/luciferase reporter gene method.
The target plasmids PCMV PPARα (Ampicillin+), PCMV PPARγ (Ampicillin+), PCMV PPARδ (Ampicillin+), and pPPRE3-TK-Luciferase (Ampicillin+) were introduced into DH5a competent cells by heat shock treatment, respectively. After being incubated for 1 hour at 37° C. with shaking (180 rpm), the cells were inoculated on LB agar solid medium containing antibiotic Ampicillin, and invertedly cultured at 37° C. for 12-16 hours. Then the monoclonal colony cultured on the medium was taken and inoculated into LB liquid medium for expanded culture. The desired plasmid was extracted from the resulting bacterial solution with a Plasmid Midi Kit (Qiagen; #12143). The plasmid obtained by centrifugation was suspended in TE buffer, and the plasmid concentration was measured and the mixture was stored at −20° C. Hela cells in the exponential phase were seeded in 6-well plates (8-10^5 cells/well), and after 6-8 hours of culture, the cells were transfected using Lipofectamine® 3000 Transfection Reagent (Invitrogen; #L3000015). A plasmid containing a PPAR binding site (peroxisome proliferator response element, PPRE) and a firefly luciferase gene (pPPRE3-TK-Luciferase) and PPAR expression vector were co-transfected into a Hela cell with a total amount of plasmid DNA of 2.5 ug (the mass ratio of each PPAR expression vector is pPPRE:PPARα=6:1, pPPRE:PPARδ=8:1, and pPPRE:PPARγ=2:1) to construct a drug screening cell model for PPAR agonists. PPAR was binded to the ligand and then binded to the peroxisome proliferator response element (PPRE), thereby initiating downstream firefly luciferase expression and its expression intensity was directly proportional to the degree of PPAR activation. The cells after 24 hours transfection were prepared into a cell suspension with a cell concentration of […] by a complete culture solution, and seeded into a 96-well plate with 100 ul per well. After overnight culture, the medium was changed to a medium containing 1% FBS. 10 mM candidate compound stock (1000×) were 4-fold diluted in DMSO for 8 points, then supplemented with medium containing 1% FBS to a final concentration of 50 uM (5×) by addition of 25 μl of 5× compound diluent to each well in different concentration gradients and incubated under 37° C., 5% CO2 incubator for 24 hrs. The 96-well plate was taken out and 30 μl of Bright-Glo™ Luciferase Assay System (Promega #E2620) was added to each well. The Luciferase luminescence intensity was measured by a SynergyH1 full-function microplate detector. The obtained data was used to calculate EC50 using GraphPad Prism 5.0 software to determine the biological activity of the compound.
The agonistic activity of the compounds synthesized in Examples 1-41 on PPAR is represented by EC50 (see Table 1). EC50 refers to the drug concentration at which the compound has a 50% increase in the agonistic activity of the measured PPAR. The compound numbers in Table 1 correspond to the compound numbers in Examples 1-41.

Series [1] in a line: Pharmacokinetic (PK) experiments after intragastric administration in rats. The settings on record: for AUC(0-inf) / AUC(0-t) / Cmax / Tmax / half-life: male, SD, rat, plasma, po, intragastric administration 20 mg/kg; for half-life: read-out: Terminal T1/2 (converted). The format is in vivo, SD rats. The procedure:
Male SD rats, weighing 250-300 grams, were fasted overnight before testing. The test compound was dissolved in 30% sulfobutyl-R-cyclodextrin (SBE-β-CD) and administered intragastrically at a dose of 20 mg/kg. Blood was collected 15 minutes, 30 minutes, and 1, 2, 3, 4, […] and 24 hours after the administration. About 0.3 ml of blood was collected at each time point, placed in a centrifuge tube containing K2-EDTA (dipotassium ethylenediamine tetraacetate) and centrifuged (2,000 g, 10 minutes, 4° C.) to take the plasma, which was stored in an ultra-low temperature refrigerator at −80° C. A 50 μL plasma sample was mixed with 5 μl of internal standard (IS) and extracted with ethyl acetate. The residue was redissolved in acetonitrile after drying under vacuum. The sample was filtered and injected into an LC-MS/MS for analysis.

Take `Cc1cc(/C=C/C(=O)c2ccc3c(c2)CCS3)cc(C)c1OC(C)(C)C(=O)O` [Compound 36, (E)-2-(4-(3-(2,3-dihydrobenzo[b]thiophen-5-yl)-3-oxoprop-1-en-1-yl)-2,6-dimethylphenoxy)-2-methylpropanoic acid]: the EC50 at PPARα was 75.1 nM. Besides, at PPARγ, the EC50 is 31.6 nM. In series [1], the total exposure AUC(0-inf) came out at 3380 ng·h/mL, the exposure AUC(0-t) was 3340 ng·h/mL, the maximum concentration (Cmax) was 2740 ng/mL and the time to peak (Tmax) was 0.38 h. Moreover, in series [1], the half-life was 6.42 h, the “absorption after oral administration compared with Elafibranor (in words)” value is “good absorption”, the “blood exposure after oral administration compared with Elafibranor (in words)” value was “highly effective blood exposure” and the “half-life after oral administration compared with Elafibranor (in words)” value (shortened to “half-life … compared with Elafibranor (in words)”) was “significantly prolonged half-life”.

As to `COc1ccc2cc(C(=O)/C=C/c3cc(C)c(OC(C)(C)C(=O)O)c(C)c3)oc2c1` [Compound 43, (E)-2-(4-(3-(6-methoxybenzofuran-2-yl)-3-oxoprop-1-en-1-yl)-2,6-dimethylphenoxy)-2-methylpropanoic acid], the half-maximal effective concentration (EC50) at PPARα turned out to be 39.8 nM. In addition, the EC50 on PPARγ stood at 116 nM. Besides, in series [1], the area under the curve AUC(0-inf) was determined as 1580 ng·h/mL, the AUC(0-t) stood at 1550 ng·h/mL, the peak level (Cmax) was 2780 ng/mL and the Tmax was 0.25 h. For the same compound, in series [1], the half-life was 6.84 h, the “absorption after oral administration compared with Elafibranor (in words)” value is reported as “good absorption”, the “blood exposure after oral administration compared with Elafibranor (in words)” value was “highly effective blood exposure” and the “half-life … compared with Elafibranor (in words)” value is reported as “significantly prolonged half-life”.

As for `CSc1ccc2cc(C(=O)/C=C/c3cc(C)c(OC(C)(C)C(=O)O)c(C)c3)oc2c1` [Compound 51, (E)-2-(2,6-dimethyl-4-(3-(6-(methylthio)benzofuran-2-yl)-3-oxoprop-1-en-1-yl)phenoxy)-2-methylpropanoic acid], on PPARα, the EC50 worked out at 4 nM, the “increased activity for activation of PPARα compared with Elafibranor” value came out at 7 fold and the “ratio of PPARγ/PPARα activated (EC50 ratio)” value is 8.83. Also, at PPARγ, the EC50 came to 35.3 nM and the “activation of PPARγ compared with Elafibranor (in words)” value is recorded as “little effect”. Further, in series [1], the total exposure AUC(0-inf) was 479 ng·h/mL, the AUC(0-t) amounted to 412 ng·h/mL, the Cmax amounted to 484 ng/mL and the Tmax worked out at 0.25 h. Besides, in series [1], the half-life was 12.3 h, the “absorption after oral administration compared with Elafibranor (in words)” value is recorded as “good absorption”, the “blood exposure after oral administration compared with Elafibranor (in words)” value was “highly effective blood exposure” and the “half-life … compared with Elafibranor (in words)” value is “significantly prolonged half-life”.

`CSc1ccc2c(C)c(C(=O)/C=C/c3cc(C)c(OC(C)(C)C(=O)O)c(C)c3)oc2c1` [Compound 62, (E)-2-(2,6-dimethyl-4-(3-(3-methyl-6-(methylthio)benzofuran-2-yl)-3-oxoprop-1-en-1-yl)phenoxy)-2-methylpropanoic acid]: at PPARα, the EC50 came to 16.6 nM, the “increased activity for activation of PPARα compared with Elafibranor” value amounted to 1 fold and the “ratio of PPARγ/PPARα activated (EC50 ratio)” value is recorded as 7.98. Further, at PPARγ, the half-maximal effective concentration (EC50) is 132 nM and the “activation of PPARγ compared with Elafibranor (in words)” value is reported as “weak activation”. In series [1], the AUC(0-inf) amounted to 3150 ng·h/mL, the AUC(0-t) came out at 3040 ng·h/mL, the highest level (Cmax) was 1830 ng/mL and the time to peak (Tmax) was determined as 0.25 h. Also, in series [1], the half-life was 8.87 h, the “absorption after oral administration compared with Elafibranor (in words)” value was “good absorption”, the “blood exposure after oral administration compared with Elafibranor (in words)” value was “highly effective blood exposure” and the “half-life … compared with Elafibranor (in words)” value is given as “significantly prolonged half-life”.
